In US9260439B2, “Dihydropyrrolopyrimidine derivatives” (PFIZER INC., priority 2014, dated 2016):
pKi: −log10 of the molar value. Where a name gives a salt, the structure may show the parent alone.

Molecular target: truncated PI3Kα (p110α/iSH2 p85α) (Homo sapiens (Human), UniProt P42336)
Experiment: PI3KA_Act fluorescence polarization kinase assay (Ki)
Type: biochemical
Settings: 1 mM ATP
Summary of the method: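 Ki values result from fitting fluorescence polarization signals to the Morrison equation for tight-binding competitive inhibitors. The detector was GST-Grp1 PH domain with TAMRA-PIP3, read after a 30 min room-temperature reaction of 0.5 nM truncated PI3Kα and 30 μM PIP2 at pH 7.4 in HEPES/NaCl/MgCl2/DTT/CHAPS buffer. Compounds were tested as 12-point 3-fold dilutions from 3 μM.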

truncated PI3Kα (p110α/iSH2 p85α), sequence (P42336 whole entry, the tested form may be a part): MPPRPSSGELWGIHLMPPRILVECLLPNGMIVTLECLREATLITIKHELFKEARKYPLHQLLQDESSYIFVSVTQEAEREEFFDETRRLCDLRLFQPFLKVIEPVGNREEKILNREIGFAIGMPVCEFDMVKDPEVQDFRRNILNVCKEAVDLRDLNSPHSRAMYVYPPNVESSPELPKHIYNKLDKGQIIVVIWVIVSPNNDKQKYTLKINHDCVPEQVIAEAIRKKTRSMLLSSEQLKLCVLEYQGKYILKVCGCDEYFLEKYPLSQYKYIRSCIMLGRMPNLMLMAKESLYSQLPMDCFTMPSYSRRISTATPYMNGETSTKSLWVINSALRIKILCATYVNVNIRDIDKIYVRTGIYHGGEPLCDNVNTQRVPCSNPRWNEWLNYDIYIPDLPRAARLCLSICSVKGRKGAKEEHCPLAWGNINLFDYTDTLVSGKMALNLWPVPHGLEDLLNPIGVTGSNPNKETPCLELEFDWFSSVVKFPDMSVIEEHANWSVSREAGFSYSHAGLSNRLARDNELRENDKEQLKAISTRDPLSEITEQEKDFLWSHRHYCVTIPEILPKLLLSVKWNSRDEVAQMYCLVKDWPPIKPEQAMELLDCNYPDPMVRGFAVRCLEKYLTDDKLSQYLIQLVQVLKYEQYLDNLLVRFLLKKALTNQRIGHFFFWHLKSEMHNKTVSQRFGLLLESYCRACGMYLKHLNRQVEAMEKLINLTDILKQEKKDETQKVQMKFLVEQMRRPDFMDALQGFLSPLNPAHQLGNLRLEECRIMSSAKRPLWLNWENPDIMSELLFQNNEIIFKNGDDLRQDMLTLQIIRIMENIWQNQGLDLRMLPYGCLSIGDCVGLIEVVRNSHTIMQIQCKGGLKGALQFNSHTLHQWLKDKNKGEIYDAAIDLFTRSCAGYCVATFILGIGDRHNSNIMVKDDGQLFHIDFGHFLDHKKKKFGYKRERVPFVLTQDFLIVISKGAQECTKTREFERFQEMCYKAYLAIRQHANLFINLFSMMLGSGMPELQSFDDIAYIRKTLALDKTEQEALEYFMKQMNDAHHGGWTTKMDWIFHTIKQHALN

C[C@H]1COCCN1c1nc(-c2cnc(N)nc2)c2c(n1)N([C@@]1(C)CCN(C(=O)[C@]3(C)CCN3)C1)CC2.Cl [Example 495, [(3S)-3-{4-(2-aminopyrimidin-5-yl)-2-[(3S)-3-methylmorpholin-4-yl]-5,6-dihydro-7H-pyrrolo[2,3-d]pyrimidin-7-yl}-3-methylpyrrolidin-1-yl][(2S)-2-methylazetidin-2-yl]methanone hydrochloride]
PI3KA_Act Ki: 0.031 nM

C[C@H]1COCCN1c1nc(-c2cnc(N)nc2)c2c(n1)N([C@@]1(C)CCN(C(=O)C3(F)CNC3)C1)CC2 [Example 496, [(3S)-3-{4-(2-aminopyrimidin-5-yl)-2-[(3S)-3-methylmorpholin-4-yl]-5,6-dihydro-7H-pyrrolo[2,3-d]pyrimidin-7-yl}-3-methylpyrrolidin-1-yl](3-fluoroazetidin-3-yl)methanone hydrochloride]
pKi: > 10.74

C[C@H]1COCCN1c1nc(-c2cnc(N)nc2)c2c(n1)N([C@@]1(C)CCN(C(=O)C3(F)CN(C(=O)OC(C)(C)C)C3)C1)CC2 [Example 497, tert-butyl 3-{[(3S)-3-{4-(2-aminopyrimidin-5-yl)-2-[(3S)-3-methylmorpholin-4-yl]-5,6-dihydro-7H-pyrrolo[2,3-d]pyrimidin-7-yl}-3-methylpyrrolidin-1-yl]carbonyl}-3-fluoroazetidine-1-carboxylate]
pKi: 10.25

COC1CN(C(=O)N2CC[C@](C)(N3CCc4c(-c5cnc(N)nc5)nc(N5CCOC[C@@H]5C)nc43)C2)C1 [Example 498, [(3S)-3-{4-(2-aminopyrimidin-5-yl)-2-[(3S)-3-methylmorpholin-4-yl]-5,6-dihydro-7H-pyrrolo[2,3-d]pyrimidin-7-yl}-3-methylpyrrolidin-1-yl](3-methoxyazetidin-1-yl)methanone]
PI3KA_Act Ki: 0.048 nM

C[C@H]1COCCN1c1nc(-c2cnc(N)nc2)c2c(n1)N([C@@]1(C)CCN(C(=O)[C@@H]3CCOC3)C1)CC2 [Example 499, [(3S)-3-{4-(2-aminopyrimidin-5-yl)-2-[(3S)-3-methylmorpholin-4-yl]-5,6-dihydro-7H-pyrrolo[2,3-d]pyrimidin-7-yl}-3-methylpyrrolidin-1-yl][(3R)-tetrahydrofuran-3-yl]methanone]
PI3KA_Act Ki: 0.048 nM

C[C@H]1COCCN1c1nc(-c2cnc(N)nc2)c2c(n1)N([C@@]1(C)CCN(C(=O)[C@H]3CCOC3)C1)CC2 [Example 500, [(3S)-3-{4-(2-aminopyrimidin-5-yl)-2-[(3S)-3-methylmorpholin-4-yl]-5,6-dihydro-7H-pyrrolo[2,3-d]pyrimidin-7-yl}-3-methylpyrrolidin-1-yl][(3S)-tetrahydrofuran-3-yl]methanone]
PI3KA_Act Ki: 0.064 nM

C[C@H]1COCCN1c1nc(-c2cnc(N)nc2)c2c(n1)N([C@@]1(C)CCN(C(=O)[C@H]3CCCO3)C1)CC2 [Example 501, [(3S)-3-{4-(2-aminopyrimidin-5-yl)-2-[(3S)-3-methylmorpholin-4-yl]-5,6-dihydro-7H-pyrrolo[2,3-d]pyrimidin-7-yl}-3-methylpyrrolidin-1-yl][(2R)-tetrahydrofuran-2-yl]methanone]
PI3KA_Act Ki: 0.035 nM

CNC(=N)N1CC[C@](C)(N2CCc3c(-c4cnc(N)nc4)nc(N4CCOC[C@@H]4C)nc32)C1 [Example 504, (3S)-3-{4-(2-aminopyrimidin-5-yl)-2-[(3S)-3-methylmorpholin-4-yl]-5,6-dihydro-7H-pyrrolo[2,3-d]pyrimidin-7-yl}-N,3-dimethylpyrrolidine-1-carboximidamide]
PI3KA_Act Ki: 0.109 nM

CNC(=O)N1CC[C@@](C)(N2CCc3c(-c4cnc(N)nc4)nc(N4CCOC[C@@H]4C)nc32)C1 [Example 505, (3R)-3-{4-(2-aminopyrimidin-5-yl)-2-[(3S)-3-methylmorpholin-4-yl]-5,6-dihydro-7H-pyrrolo[2,3-d]pyrimidin-7-yl}-N,3-dimethylpyrrolidine-1-carboxamide]
PI3KA_Act Ki: 0.139 nM

CNC(=O)N1CC[C@](C)(N2CCc3c(-c4cnc(N)nc4)nc(N4CCOC[C@@H]4C)nc32)C1 [Example 506, (3S)-3-{4-(2-aminopyrimidin-5-yl)-2-[(3S)-3-methylmorpholin-4-yl]-5,6-dihydro-7H-pyrrolo[2,3-d]pyrimidin-7-yl}-N,3-dimethylpyrrolidine-1-carboxamide]
PI3KA_Act Ki: 0.061 nM

CCNC(=O)N1CC[C@](C)(N2CCc3c(-c4cnc(N)nc4)nc(N4CCOCC4)nc32)C1 [Example 507, (3S)-3-[4-(2-aminopyrimidin-5-yl)-2-(morpholin-4-yl)-5,6-dihydro-7H-pyrrolo[2,3-d]pyrimidin-7-yl]-N-ethyl-3-methylpyrrolidine-1-carboxamide]
pKi: 10.09

COC(=O)N1CC[C@](C)(N2CCc3c(-c4cnc(N)nc4)nc(N4CCOC[C@@H]4C)nc32)C1 [Example 508, methyl (3S)-3-{4-(2-aminopyrimidin-5-yl)-2-[(3S)-3-methylmorpholin-4-yl]-5,6-dihydro-7H-pyrrolo[2,3-d]pyrimidin-7-yl}-3-methylpyrrolidine-1-carboxylate]
PI3KA_Act Ki: <0.018 nM

COC(=O)N1CC[C@@](C)(N2CCc3c(-c4cnc(N)nc4)nc(N4CCOC[C@@H]4C)nc32)C1 [Example 509, methyl (3R)-3-{4-(2-aminopyrimidin-5-yl)-2-[(3S)-3-methylmorpholin-4-yl]-5,6-dihydro-7H-pyrrolo[2,3-d]pyrimidin-7-yl}-3-methylpyrrolidine-1-carboxylate]
PI3KA_Act Ki: 0.135 nM

C[C@@H]1CN(C(=O)OC(C)(C)C)C[C@@]1(C)N1CCc2c(-c3cnc(N)nc3)nc(N3CCOC[C@@H]3C)nc21 [Example 510, tert-butyl (3S,4R)-3-{4-(2-aminopyrimidin-5-yl)-2-[(3S)-3-methylmorpholin-4-yl]-5,6-dihydro-7H-pyrrolo[2,3-d]pyrimidin-7-yl}-3,4-dimethylpyrrolidine-1-carboxylate]
PI3KA_Act Ki: <0.018 nM

C[C@H]1COCCN1c1nc(-c2cnc(N)nc2)c2c(n1)N([C@@]1(C)CN(C(=O)OC(C)(C)C)C[C@@H]1C)CC2 [Example 511, tert-butyl (3R,4S)-3-{4-(2-aminopyrimidin-5-yl)-2-[(3S)-3-methylmorpholin-4-yl]-5,6-dihydro-7H-pyrrolo[2,3-d]pyrimidin-7-yl}-3,4-dimethylpyrrolidine-1-carboxylate]
PI3KA_Act Ki: 0.915 nM

C[C@H]1COCCN1c1nc(-c2cnc(N)nc2)c2c(n1)N([C@@]1(C)CCN(C(=O)OC(C)(C)C)C1)CC2 [Example 512, tert-butyl (3S)-3-{4-(2-aminopyrimidin-5-yl)-2-[(3S)-3-methylmorpholin-4-yl]-5,6-dihydro-7H-pyrrolo[2,3-d]pyrimidin-7-yl}-3-methylpyrrolidine-1-carboxylate]
PI3KA_Act Ki: <0.018 nM

C[C@H]1COCCN1c1nc(-c2cnc(N)nc2)c2c(n1)N([C@@]1(C)CCN(C)C1)CC2 [Example 513, 5-{7-[(3S)-1,3-dimethylpyrrolidin-3-yl]-2-[(3S)-3-methylmorpholin-4-yl]-6,7-dihydro-5H-pyrrolo[2,3-d]pyrimidin-4-yl}pyrimidin-2-amine]
PI3KA_Act Ki: 0.418 nM

C[C@H]1COCCN1c1nc(-c2cnc(N)nc2)c2c(n1)N(C1(C)CCNCC1)CC2.Cl [Example 516, 5-{2-[(3S)-3-methylmorpholin-4-yl]-7-(4-methylpiperidin-4-yl)-6,7-dihydro-5H-pyrrolo[2,3-d]pyrimidin-4-yl}pyrimidin-2-amine hydrochloride]
PI3KA_Act Ki: 0.346 nM

C[C@H]1COCCN1c1nc(-c2cnc(N)nc2)c2c(n1)N(C1(C)CCN(C(=O)OC(C)(C)C)CC1)CC2 [Example 519, tert-butyl 4-{4-(2-aminopyrimidin-5-yl)-2-[(3S)-3-methylmorpholin-4-yl]-5,6-dihydro-7H-pyrrolo[2,3-d]pyrimidin-7-yl}-4-methylpiperidine-1-carboxylate]
PI3KA_Act Ki: 0.036 nM

C[C@H]1COCCN1c1nc(-c2cnc(N)nc2)c2c(n1)N(C1(C)CCCN(C(=O)OC(C)(C)C)C1)CC2 (stereo partly drawn) [Example 520, tert-butyl 3-{4-(2-aminopyrimidin-5-yl)-2-[(3S)-3-methylmorpholin-4-yl]-5,6-dihydro-7H-pyrrolo[2,3-d]pyrimidin-7-yl}-3-methylpiperidine-1-carboxylate]
PI3KA_Act Ki: 0.663 nM

C[C@H]1COCCN1c1nc(-c2cnc(N)nc2)c2c(n1)N([C@H]1[C@@H]3CN(C(=O)OC(C)(C)C)C[C@@H]31)CC2 [Example 521, tert-butyl (1R,5S,6s)-6-{4-(2-aminopyrimidin-5-yl)-2-[(3S)-3-methylmorpholin-4-yl]-5,6-dihydro-7H-pyrrolo[2,3-d]pyrimidin-7-yl}-3-azabicyclo[3.1.0]hexane-3-carboxylate]
PI3KA_Act Ki: 0.170 nM

C[C@H]1COCCN1c1nc(-c2cnc(N)nc2)c2c(n1)N([C@H]1[C@@H]3CNC[C@@H]31)CC2.Cl [Example 522, 5-{7-[(1R,5S,6s)-3-azabicyclo[3.1.0]hex-6-yl]-2-[(3S)-3-methylmorpholin-4-yl]-6,7-dihydro-5H-pyrrolo[2,3-d]pyrimidin-4-yl}pyrimidin-2-amine hydrochloride]
PI3KA_Act Ki: 6.845 nM

C[C@H]1COCCN1c1nc(-c2cnc(N)nc2)c2c(n1)N([C@H]1[C@H]3C[C@@H]1N(C(=O)OC(C)(C)C)C3)CC2 [Example 523, tert-butyl (1S,4S,5S)-5-{4-(2-aminopyrimidin-5-yl)-2-[(3S)-3-methylmorpholin-4-yl]-5,6-dihydro-7H-pyrrolo[2,3-d]pyrimidin-7-yl}-2-azabicyclo[2.1.1]hexane-2-carboxylate]
pKi: 8.28
